In PubChem BioAssay AID1918937 (Molecular Pharmacology Branch, DTP, NCI, 2023):

System: 521955-158-R2-J5-PDC complex spheroid viability
Experiment: Anticancer human tumor 521955-158-R2-J5-PDC patient-derived pancreatic carcinoma cell line growth inhibition
Details: for IC50: curve of first compound; for viability, T/C: stronger effect = lower value
Procedure, shortened: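 Multicellular complex spheroids of tumor cells with human endothelial cells (HUVEC) and mesenchymal stem cells; the LSD1 inhibitor iadademstat was combined with standard-of-care or investigational agents. Top concentration at or near clinical Cmax, half-log dilutions; final DMSO ≤0.25%.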

[1] = second compound 0.1 µM, first compound 0.0316 µM
[2] = second compound 0.1 µM, first compound 0.1 µM
[3] = second compound 0.316 µM, first compound 0.0316 µM
[4] = second compound 0.316 µM, first compound 0.1 µM
[5] = second compound 1 µM, first compound 0.0316 µM
[6] = second compound 1 µM, first compound 0.1 µM
[7] = second compound 3.16 µM, first compound 0.0316 µM
[8] = second compound 3.16 µM, first compound 0.1 µM
[9] = second compound 10 µM, first compound 0.0316 µM
[10] = second compound 10 µM, first compound 0.1 µM
[11] = second compound 0.1 µM, first compound 0.000949 µM
[12] = second compound 0.1 µM, first compound 0.003 µM
[13] = second compound 0.1 µM, first compound 0.00949 µM
[14] = second compound 0.1 µM, first compound 0.03 µM
[15] = second compound 0.1 µM, first compound 0.0949 µM
[16] = second compound 0.1 µM, first compound 0.3 µM
[17] = second compound 0.316 µM, first compound 0.000949 µM
[18] = second compound 0.316 µM, first compound 0.003 µM
[19] = second compound 0.316 µM, first compound 0.00949 µM
[20] = second compound 0.316 µM, first compound 0.03 µM
[21] = second compound 0.316 µM, first compound 0.0949 µM
[22] = second compound 0.316 µM, first compound 0.3 µM
[23] = second compound 1 µM, first compound 0.000949 µM
[24] = second compound 1 µM, first compound 0.003 µM
[25] = second compound 1 µM, first compound 0.00949 µM
[26] = second compound 1 µM, first compound 0.03 µM
[27] = second compound 1 µM, first compound 0.0949 µM
[28] = second compound 1 µM, first compound 0.3 µM
[29] = second compound 3.16 µM, first compound 0.000949 µM
[30] = second compound 3.16 µM, first compound 0.003 µM
[31] = second compound 3.16 µM, first compound 0.00949 µM
[32] = second compound 3.16 µM, first compound 0.03 µM
[33] = second compound 3.16 µM, first compound 0.0949 µM
[34] = second compound 3.16 µM, first compound 0.3 µM
[35] = second compound 10 µM, first compound 0.000949 µM
[36] = second compound 10 µM, first compound 0.003 µM
[37] = second compound 10 µM, first compound 0.00949 µM
[38] = second compound 10 µM, first compound 0.03 µM
[39] = second compound 10 µM, first compound 0.0949 µM
[40] = second compound 10 µM, first compound 0.3 µM
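Note: spheroids exposed to agents for seven days.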
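Throughout, for viability, T/C: percent of DMSO vehicle control luminescence viability.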

## CC[C@@]1(O)C(=O)OCc2c1cc1n(c2=O)Cc2cc3c(CN(C)C)c(O)ccc3nc2-1 + NC1CCC(NC2CC2c2ccccc2)CC1
Second compound 0.1 µM
  IC50: 0.00487 µM
Second compound 0.316 µM
  IC50: 0.00489 µM
Second compound 1 µM
  IC50: 0.00435 µM
Second compound 3.16 µM
  IC50: 0.00478 µM
Second compound 10 µM
  IC50: 0.00455 µM
Second compound 0.1 µM, first compound 0.000316 µM
  viability, T/C: 100%
Second compound 0.1 µM, first compound 0.001 µM
  viability, T/C: 104%
Second compound 0.1 µM, first compound 0.00316 µM
  viability, T/C: 72.3%
Second compound 0.1 µM, first compound 0.01 µM
  viability, T/C: 12.8%
[1]
  viability, T/C: 7.11%
[2]
  viability, T/C: 5.58%
Second compound 0.316 µM, first compound 0.000316 µM
  viability, T/C: 101%
Second compound 0.316 µM, first compound 0.001 µM
  viability, T/C: 97.2%
Second compound 0.316 µM, first compound 0.00316 µM
  viability, T/C: 72.9%
Second compound 0.316 µM, first compound 0.01 µM
  viability, T/C: 12.2%
[3]
  viability, T/C: 6.01%
[4]
  viability, T/C: 4.82%
Second compound 1 µM, first compound 0.000316 µM
  viability, T/C: 97.3%
Second compound 1 µM, first compound 0.001 µM
  viability, T/C: 97.5%
Second compound 1 µM, first compound 0.00316 µM
  viability, T/C: 64.7%
Second compound 1 µM, first compound 0.01 µM
  viability, T/C: 11.7%
[5]
  viability, T/C: 6.84%
[6]
  viability, T/C: 5.45%
Second compound 3.16 µM, first compound 0.000316 µM
  viability, T/C: 96.7%
Second compound 3.16 µM, first compound 0.001 µM
  viability, T/C: 94.9%
Second compound 3.16 µM, first compound 0.00316 µM
  viability, T/C: 70.5%
Second compound 3.16 µM, first compound 0.01 µM
  viability, T/C: 13.2%
[7]
  viability, T/C: 6.25%
[8]
  viability, T/C: 4.49%
Second compound 10 µM, first compound 0.000316 µM
  viability, T/C: 104%
Second compound 10 µM, first compound 0.001 µM
  viability, T/C: 105%
Second compound 10 µM, first compound 0.00316 µM
  viability, T/C: 67%
Second compound 10 µM, first compound 0.01 µM
  viability, T/C: 13.1%
[9]
  viability, T/C: 6.18%
[10]
  viability, T/C: 4.49%

## CCc1c2c(nc3ccc(O)cc13)-c1cc3c(c(=O)n1C2)COC(=O)[C@]3(O)CC + NC1CCC(NC2CC2c2ccccc2)CC1
Second compound 0.1 µM
  IC50: < 0.000949 µM
Second compound 0.316 µM
  IC50: < 0.000949 µM
Second compound 1 µM
  IC50: < 0.000949 µM
Second compound 3.16 µM
  IC50: < 0.000949 µM
Second compound 10 µM
  IC50: < 0.000949 µM
[11]
  viability, T/C: 4.35%
[12]
  viability, T/C: 3.31%
[13]
  viability, T/C: 1.16%
[14]
  viability, T/C: 0.45%
[15]
  viability, T/C: 0.43%
[16]
  viability, T/C: 0.63%
[17]
  viability, T/C: 5.2%
[18]
  viability, T/C: 4.07%
[19]
  viability, T/C: 0.9%
[20]
  viability, T/C: 0.54%
[21]
  viability, T/C: 0.4%
[22]
  viability, T/C: 0.58%
[23]
  viability, T/C: 5.26%
[24]
  viability, T/C: 3.09%
[25]
  viability, T/C: 0.97%
[26]
  viability, T/C: 0.59%
[27]
  viability, T/C: 0.52%
[28]
  viability, T/C: 0.46%
[29]
  viability, T/C: 4.43%
[30]
  viability, T/C: 3.74%
[31]
  viability, T/C: 0.95%
[32]
  viability, T/C: 0.3%
[33]
  viability, T/C: 0.53%
[34]
  viability, T/C: 1.4%
[35]
  viability, T/C: 4.7%
[36]
  viability, T/C: 4.29%
[37]
  viability, T/C: 1.07%
[38]
  viability, T/C: 0.67%
[39]
  viability, T/C: 1.68%
[40]
  viability, T/C: 0.55%

## Nc1ccccc1NC(=O)c1ccc(CNC(=O)OCc2cccnc2)cc1 + NC1CCC(NC2CC2c2ccccc2)CC1
Second compound 0.1 µM
  IC50: 0.321 µM
Second compound 0.316 µM
  IC50: 0.389 µM
Second compound 1 µM
  IC50: 0.342 µM
Second compound 3.16 µM
  IC50: 0.293 µM
Second compound 10 µM
  IC50: 0.334 µM
[13]
  viability, T/C: 104%
[14]
  viability, T/C: 107%
[15]
  viability, T/C: 86.8%
[16]
  viability, T/C: 55.1%
Second compound 0.1 µM, first compound 0.949 µM
  viability, T/C: 9.73%
Second compound 0.1 µM, first compound 3 µM
  viability, T/C: 0.31%
[19]
  viability, T/C: 103%
[20]
  viability, T/C: 99%
[21]
  viability, T/C: 88.7%
[22]
  viability, T/C: 62.8%
Second compound 0.316 µM, first compound 0.949 µM
  viability, T/C: 11.8%
Second compound 0.316 µM, first compound 3 µM
  viability, T/C: 0.34%
[25]
  viability, T/C: 98.7%
[26]
  viability, T/C: 101%
[27]
  viability, T/C: 84.4%
[28]
  viability, T/C: 57%
Second compound 1 µM, first compound 0.949 µM
  viability, T/C: 12.4%
Second compound 1 µM, first compound 3 µM
  viability, T/C: 0.26%
[31]
  viability, T/C: 102%
[32]
  viability, T/C: 101%
[33]
  viability, T/C: 80.4%
[34]
  viability, T/C: 52.7%
Second compound 3.16 µM, first compound 0.949 µM
  viability, T/C: 10.7%
Second compound 3.16 µM, first compound 3 µM
  viability, T/C: 0.24%
[37]
  viability, T/C: 96.8%
[38]
  viability, T/C: 98%
[39]
  viability, T/C: 78.2%
[40]
  viability, T/C: 58.6%
Second compound 10 µM, first compound 0.949 µM
  viability, T/C: 10.2%
Second compound 10 µM, first compound 3 µM
  viability, T/C: 0.35%

## Nc1ccn(C2OC(CO)C(O)C2(F)F)c(=O)n1 (stereo not given) + NC1CCC(NC2CC2c2ccccc2)CC1
Second compound 0.1 µM
  IC50: 0.0509 µM
Second compound 0.316 µM
  IC50: 0.0555 µM
Second compound 1 µM
  IC50: 0.0562 µM
Second compound 3.16 µM
  IC50: 0.0501 µM
Second compound 10 µM
  IC50: 0.0435 µM
[11]
  viability, T/C: 105%
[12]
  viability, T/C: 104%
[13]
  viability, T/C: 96.8%
[14]
  viability, T/C: 68.4%
[15]
  viability, T/C: 28.4%
[16]
  viability, T/C: 16.3%
[17]
  viability, T/C: 105%
[18]
  viability, T/C: 98.8%
[19]
  viability, T/C: 96.2%
[20]
  viability, T/C: 79.7%
[21]
  viability, T/C: 24.2%
[22]
  viability, T/C: 11.2%
[23]
  viability, T/C: 95.3%
[24]
  viability, T/C: 97.2%
[25]
  viability, T/C: 90.1%
[26]
  viability, T/C: 74.8%
[27]
  viability, T/C: 29.5%
[28]
  viability, T/C: 12.6%
[29]
  viability, T/C: 104%
[30]
  viability, T/C: 96.6%
[31]
  viability, T/C: 82.6%
[32]
  viability, T/C: 69.5%
[33]
  viability, T/C: 28.8%
[34]
  viability, T/C: 12.8%
[35]
  viability, T/C: 101%
[36]
  viability, T/C: 98%
[37]
  viability, T/C: 83.7%
[38]
  viability, T/C: 63.2%
[39]
  viability, T/C: 26%
[40]
  viability, T/C: 10.4%

## O=C(c1cc(Cc2n[nH]c(=O)c3ccccc23)ccc1F)N1CCN(C(=O)C2CC2)CC1 + NC1CCC(NC2CC2c2ccccc2)CC1
Second compound 0.1 µM
  IC50: > 10 µM
Second compound 0.316 µM
  IC50: > 10 µM
Second compound 1 µM
  IC50: > 10 µM
Second compound 3.16 µM
  IC50: > 10 µM
Second compound 10 µM
  IC50: > 10 µM
[1]
  viability, T/C: 109%
[2]
  viability, T/C: 107%
Second compound 0.1 µM, first compound 0.316 µM
  viability, T/C: 100%
Second compound 0.1 µM, first compound 1 µM
  viability, T/C: 98.6%
Second compound 0.1 µM, first compound 3.16 µM
  viability, T/C: 89.3%
Second compound 0.1 µM, first compound 10 µM
  viability, T/C: 56.6%
[3]
  viability, T/C: 106%
[4]
  viability, T/C: 108%
Second compound 0.316 µM, first compound 0.316 µM
  viability, T/C: 103%
Second compound 0.316 µM, first compound 1 µM
  viability, T/C: 102%
Second compound 0.316 µM, first compound 3.16 µM
  viability, T/C: 89%
Second compound 0.316 µM, first compound 10 µM
  viability, T/C: 57.8%
[5]
  viability, T/C: 97.9%
[6]
  viability, T/C: 99.6%
Second compound 1 µM, first compound 0.316 µM
  viability, T/C: 99.4%
Second compound 1 µM, first compound 1 µM
  viability, T/C: 94.8%
Second compound 1 µM, first compound 3.16 µM
  viability, T/C: 97.1%
Second compound 1 µM, first compound 10 µM
  viability, T/C: 54.9%
[7]
  viability, T/C: 98.4%
[8]
  viability, T/C: 101%
Second compound 3.16 µM, first compound 0.316 µM
  viability, T/C: 99.6%
Second compound 3.16 µM, first compound 1 µM
  viability, T/C: 102%
Second compound 3.16 µM, first compound 3.16 µM
  viability, T/C: 86.8%
Second compound 3.16 µM, first compound 10 µM
  viability, T/C: 59.5%
[9]
  viability, T/C: 102%
[10]
  viability, T/C: 105%
Second compound 10 µM, first compound 0.316 µM
  viability, T/C: 99%
Second compound 10 µM, first compound 1 µM
  viability, T/C: 95.3%
Second compound 10 µM, first compound 3.16 µM
  viability, T/C: 81.9%
Second compound 10 µM, first compound 10 µM
  viability, T/C: 55.9%
